Data set [1] in a line: Serum concentration of androgen analogs after intravenous injection, by LC/MS. The data set is classed as in vivo. As to conditions: mouse, 50 ug, 50 μg intravenous, C57/B6 mice. The method, then:
FIG. 8. C57B6 mice were intravenously injected with 50 μg of IVMDHT, IVNDHT, and IVDHT. Blood samples were collected at 1, 2, 4, and 8 hours (n=4) and the serum concentrations of the compounds were analyzed by liquid chromatography mass spectrometry. With reference to 2 hours on FIG. 8, the upper line represents IVMDHT; the middle line represents IVNDHT, and the lower line represents IVDHT.
To assess the stability of different androgen analogs, 50 μg of IVDHT, IVNDHT, and IVMDHT was intravenously injected into C57/B6 mice. Blood samples were collected from the mice at 1, 2, 4, and 8 hours and analyzed by liquid chromatography/mass spectrometry (n=4).

In another data set the target is T1, human AR (Homo sapiens, UniProt P10275).
T1 construct: expressed in transfected cells; host or cells: CV-1
T1 sequence (P10275 1-920): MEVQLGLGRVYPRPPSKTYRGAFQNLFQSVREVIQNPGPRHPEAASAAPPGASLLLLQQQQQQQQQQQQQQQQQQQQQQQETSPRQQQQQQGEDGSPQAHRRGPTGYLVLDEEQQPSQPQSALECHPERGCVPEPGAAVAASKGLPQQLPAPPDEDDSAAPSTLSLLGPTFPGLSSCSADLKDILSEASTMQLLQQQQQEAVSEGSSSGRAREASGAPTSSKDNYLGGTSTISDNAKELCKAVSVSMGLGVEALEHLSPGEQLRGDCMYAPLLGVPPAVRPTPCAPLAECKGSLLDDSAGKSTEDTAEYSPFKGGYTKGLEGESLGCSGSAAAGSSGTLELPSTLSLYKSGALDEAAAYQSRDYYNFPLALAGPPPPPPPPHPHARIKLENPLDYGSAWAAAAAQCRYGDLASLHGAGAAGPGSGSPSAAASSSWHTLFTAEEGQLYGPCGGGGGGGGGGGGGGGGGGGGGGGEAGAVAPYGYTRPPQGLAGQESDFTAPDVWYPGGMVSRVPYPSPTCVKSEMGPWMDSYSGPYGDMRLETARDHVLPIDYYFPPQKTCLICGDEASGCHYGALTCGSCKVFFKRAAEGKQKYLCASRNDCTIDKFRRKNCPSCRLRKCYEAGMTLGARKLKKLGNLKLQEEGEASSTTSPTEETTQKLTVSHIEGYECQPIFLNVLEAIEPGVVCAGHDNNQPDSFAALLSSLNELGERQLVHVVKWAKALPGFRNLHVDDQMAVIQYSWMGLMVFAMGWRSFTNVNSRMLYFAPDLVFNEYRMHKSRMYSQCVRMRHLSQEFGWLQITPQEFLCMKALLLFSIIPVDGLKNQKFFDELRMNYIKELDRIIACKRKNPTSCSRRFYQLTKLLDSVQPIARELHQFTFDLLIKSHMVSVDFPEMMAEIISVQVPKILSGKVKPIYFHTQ
The data set can be described thus: Androgen-inducible (3ARE) luciferase reporter in CV-1 cells transfected with human AR expression vector. As to conditions: CV1 cells, 1 nM and 10 nM, 24 hours. The data set is classed as cell-based. The method, then: (§1) Cells were immunostained with an anti-AR antibody and 4′,6-diamidino-2-phenylindole (DAPI) to determine the nuclear location of the AR. FIG. 5D: CV-1 cells were transiently transfected in 48-well plates with 100 ng of luciferase reporter plasmid regulated by 3 androgen response elements (3ARE), 25 ng of pSV40 β-gal, or with or without 20 ng of the human AR expression vector. […] Then whole cell lysates were prepared to assess luciferase and β-gal activities. Transfection experiments were repeated three times in triplicate. Relative luciferase units (RLUs) were determined from three independent transfections and are presented as the mean+/−SEM.
(§2) Experiments were performed to assess the biological activity of IVMDHT. […] To determine the activity of IVMDHT in activating AR-mediated transcription, CV1 (FIG. 5D) and LNCaP cells (FIG. 5E) were transfected with an androgen-inducible luciferase reporter vector driven by AREs together either with or without the human AR expression vector.

The target of data set [2] is T2, endogenous AR (Homo sapiens, UniProt P10275, T878A).
T2 construct: translocate endogenous AR into the nucleus in LNCaP cells; endogenous in cells; host or cells: LNCaP
T2 sequence (P10275 1-920 T878A): T1 sequence (P10275 1-920) with T878A
The data set can be described thus: AR nuclear translocation, immunostaining with anti-AR antibody and DAPI in LNCaP cells. As to conditions: 48 hours without androgens, then 8 hours with compound. The data set is classed as cell-based. The procedure: as §1, §2

The next data set deals with T3, AR (Mus musculus, UniProt P19091).
T3 construct: from tissue; host or cells: living C57/B6 male mice, intact or castrated; prostate and other organs
T3 sequence (P19091 1-899): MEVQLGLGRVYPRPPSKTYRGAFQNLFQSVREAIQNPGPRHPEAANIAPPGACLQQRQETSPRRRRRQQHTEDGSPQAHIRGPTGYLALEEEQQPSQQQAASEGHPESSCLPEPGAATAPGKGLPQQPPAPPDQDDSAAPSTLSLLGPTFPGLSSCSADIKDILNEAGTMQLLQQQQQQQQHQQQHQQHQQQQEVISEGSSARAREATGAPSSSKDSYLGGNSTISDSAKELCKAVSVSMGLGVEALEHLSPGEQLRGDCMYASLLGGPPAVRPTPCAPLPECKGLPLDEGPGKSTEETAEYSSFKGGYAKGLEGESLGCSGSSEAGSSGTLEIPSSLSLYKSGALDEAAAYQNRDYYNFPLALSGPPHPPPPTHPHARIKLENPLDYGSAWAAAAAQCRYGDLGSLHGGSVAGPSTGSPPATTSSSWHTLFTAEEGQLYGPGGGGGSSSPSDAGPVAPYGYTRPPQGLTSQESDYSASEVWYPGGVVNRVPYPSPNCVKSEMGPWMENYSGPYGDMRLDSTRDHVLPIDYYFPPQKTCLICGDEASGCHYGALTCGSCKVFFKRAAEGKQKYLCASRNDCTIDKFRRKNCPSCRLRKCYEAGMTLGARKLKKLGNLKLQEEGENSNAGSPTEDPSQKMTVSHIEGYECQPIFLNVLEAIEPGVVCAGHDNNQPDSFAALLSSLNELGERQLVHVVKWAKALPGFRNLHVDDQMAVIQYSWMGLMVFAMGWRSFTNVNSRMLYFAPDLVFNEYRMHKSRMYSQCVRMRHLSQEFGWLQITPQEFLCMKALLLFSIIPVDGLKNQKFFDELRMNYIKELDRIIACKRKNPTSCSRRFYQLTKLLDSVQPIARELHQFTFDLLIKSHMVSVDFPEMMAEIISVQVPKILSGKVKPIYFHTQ
The data set can be described thus: microPET imaging in intact and castrated C57/B6 male mice. The data set is classed as in vivo. As to conditions: 1.2 MBq intraperitoneal, images at 1, 2 and 6 hours. The method, then: FIGS. 6A-6E. The androgen analog ^124IVMDHT was intravenously injected into the tail-vein of intact (FIG. 6A) and castrated mice (FIG. 6B) and imaged at 1 hour (FIG. 6A panel 1, FIG. 6B panel 1), 2 hours (FIG. 6A panel 2, FIG. 6B panel 2) and 6 hours (FIG. 6A panel 3, FIG. 6B panel 3). […] The mice were then analyzed at 1 hour (FIG. 6D panel 1, FIG. 6E panel 1), 2 hour (FIG. 6D panel 2, FIG. 6E panel 2) and 6 hours (FIG. 6D panel 3, FIG. 6E panel 3). Positive images are shown with arrows.
In this example, microPET imaging and biodistribution assays will be performed using three available and biologically relevant animal models to fully examine the specific binding affinity of IVMDHT with the AR in vivo. […] Tissue samples were weighed and counted and the results expressed as % ID/g and total counts per organ. […] The biodistribution results will be analyzed in prostate and other non-AR enrich tissues from intact and castrated mice to determine specific uptake of ^124IVMDHT.
To determine the specific binding affinity of IVMDHT with the AR in vivo, microPET imaging and biodistribution assays were performed. The binding specificity of ^124IVMDHT in 4-month-old castrated and intact C57/B6 male mice (n=4 per group) was evaluated. […]
Using a similar experimental approach, IVNDHT was assessed in C57/B6 male mice. […] The intake rate of ^124IVNDHT was further assessed by intraperitoneal injection. […]

Data set [3] concerns the target T2, endogenous AR. The data set can be described thus: Androgen-inducible (3ARE) luciferase reporter in LNCaP cells, endogenous AR transcriptional activity. The data set is classed as cell-based. Particulars: no AR expression vector, 1 nM and 10 nM, 24 hours. The method, then: as §1, §2

Substitutions are numbered along the chain they refer to.

For `C[C@]12CCC(=O)C[C@@H]1C[C@@H](/C=C/I)[C@@H]1[C@@H]2CC[C@]2(C)[C@@H](O)CC[C@@H]12` [IVDHT, 7α-(E-2′-iodovinyl)-5α-dihydrotestosterone], the half-life in data set [1] was ~1.5 h.

For `C[C@]12CCC(=O)C[C@@H]1C[C@@H](/C=C/I)[C@@H]1[C@@H]2CC[C@@]2(C)[C@H]1CC[C@]2(C)O` [IVMDHT, 7α-(E-2′-iodovinyl)-17α-methyl-5α-dihydrotestosterone], in data set [1], the half-life was ~1.5 h. Moreover, the AR-mediated luciferase activity result on human AR and on endogenous AR [3] was “increase in AR-mediated luciferase activity” in each case. At endogenous AR [2], the “nuclear location of the AR protein” value is “uniform nuclear staining of the AR protein”. The “microPET signal in the vicinity of the bladder/prostate” value on AR is “low dosage and intraperitoneal injections extend the specific intake”.

Regarding `C[C@]12CC[C@@H]3C4CCC(=O)C[C@@H]4C[C@@H](/C=C/I)[C@H]3[C@@H]1CC[C@@H]2O` (stereo partly drawn) [IVNDHT, 7α-(E-2′-iodovinyl)-19-nor-5α-dihydrotestosterone], in data set [1], the half-life is ~1.5 h.

Source of the values: patent US11541062B2, “Methods of treating advanced prostate cancer” (priority 2017, dated 2023).
